Where two headings read alike, the source gives them in different places.
Key:
[1] = Acute toxicity, DL-50 I.V. in male mice; conditions: mouse, in vivo, iv, lots de 10 souris mâles
Source text: (§1) Le tableau I concerne la toxicité chez la souris mâle, d'une part, et la dose minimale induisant chez le chien anesthésié une action vasodilatatrice fémorale nette, d'autre part. La DL-50 I.V. a été déterminée sur des lots de 10 souris mâles; la dose minimale vasodilatatrice a été déterminée sur un lot de 5 chiens servant de témoins par rapport à eux-mêmes et recevant chaque dose de produit à tester toutes les 2,5 heures.

[2] = test system: chien anesthésié; experiment: Minimal dose inducing a clear femoral vasodilator action in the anaesthetised dog; type: in vivo; conditions: Canis lupus familiaris, lot de 5 chiens
Source text: as §1

[3] = test system: chiens; experiment: Duration of the vasodilator action, repeated intraduodenal administration in dogs; type: in vivo, chien
Description: Trois chiens (poids moyen 11,1 kg) reçoivent le CRL 41 080 par voie intraduodénale à la dose de 5 mg/kg à deux reprises (délai entre les deux administrations : 90 min) puis 6 mg/kg I.D. de LL 1656 et, 2 heures plus tard, une nouvelle administration de 5 mg/kg I.D. de CRL 41 080.

[4] = test system: chien anesthésié; experiment: Cardiovascular properties in the anaesthetised dog, I.V. (arterial pressures, heart rate, femoral arterial flow); type: in vivo
Source text: Le tableau II concerne les variations des pressions […]. systolique, diastolique, […]équence cardiaque et du débit artériel fémoral.

[5] = test system: chiens anesthésiés; experiment: Femoral vasodilator action by intravenous infusion in anaesthetised dogs; type: in vivo, chien
Description: Deux chiens (poids moyen 12,4 kg) anesthésiés au pento- barbital reçoivent le CRL 41 080 par voie intraveineuse, en perfusion de 6 min, aux doses successives de 2 fois 1 mg/kg, puis 2 et 4 mg/kg toutes les 60 min. Pour comparaison, ces animaux reçoivent en fin d'essai une perfusion de 6 mg/kg I.V. d'un produit de référence connu, le LL 1656 précité.

[6] = test system: homme; experiment: Clinical trials in man; type: in vivo; conditions: voie orale (trois gélules par jour de 100 mg) et voie injectable (I.V. ou I.M., une ampoule par jour de 40 mg)
[7] = Solubility in water (observation on the isolated product); type: physicochemical; conditions: poudre blanche
Description: On fait passer entre -5°C et 0°C pendant 2,5 h un courant d'acide chlorhydrique sec au sein d'une solution de 16,8 g (0,10 mole) de 1,3,5-triméthoxybenzène et de 16,6 g (0,10 mole) de 4-hexaméthylèneimino-butyronitrile en solution dans 115 ml de chlorobenzène anhydre. On abandonne la suspension au froid entre 0°C et +4°C une nuit et on extrait le milieu réactionnel par de l'eau. On porte la phase aqueuse au reflux pendant 1 h, on alcalinise par de la soude concentrée et on extrait le précipité par de l'éther diéthylique pour donner 29,8 g d'une huile jaune pale. Cette huile est traitée dans l'éther diéthylique par de l'éthanol chlorhydrique. […] Finst (^Kofler) = 150°C.

[8] = Antispasmodic properties (no method described)
[9] = test system: chiens anesthésiés; experiment: Vasodilator action by intraduodenal route in anaesthetised dogs; type: in vivo, chien; conditions: voie intraduodénale
Source text: On mesure la pression artérielle, la fréquence cardiaque, le débit artériel fémoral, le débit artériel vertébral, les températures rectale et cutanée.

[10] = iv, par voie I.V., read-out: dose minimale induisant chez le chien anesthésié une action vasodilatatrice fémorale par voie I.V.
[11] = 5 mg/kg I.D., first administration
[12] = 5 mg/kg I.D., second administration
[13] = dose supplémentaire de 5 mg/kg I.D., 2 heures after LL 1656
[14] = I.V., perfusion de 6 min, 2 fois 1 mg/kg puis 2 et 4 mg/kg, deux chiens
[15] = intraduodenal, par voie I.D., '-(d)' = pas d'action vasodilatatrice par voie I.D., read-out: dose minimale induisant chez le chien anesthésié une action vasodilatatrice fémorale par voie I.D.
[16] = 6 mg/kg I.D., after two administrations of CRL 41 080

COc1cc(OC)c(C(=O)CCCN2CCCCC2)c(OC)c1 [LL 1647, chlorhydratede (2,4,6-triméthoxyphényl)-(3-pipéridi-nopropyl)-cétone]
LD50 [1]: 68 ± 4 mg/kg
minimal effective dose [2, 10]: 5 mg/kg

COc1cc(OC)c(C(=O)CCCN2CCCCCC2)c(OC)c1 [CRL 41080, chlorhydratede (2,4,6-triméthoxyphényl)-(3-hexaméthylèneiminopropyl)-cétone]
LD50 [1]: 96 ± 3 mg/kg
autres paramètres mesurés [3, 11]: ne sont pas modifiés
time at which the effect on débit fémoral has disappeared [3, 11]: 120 min
time at which the effect on débit fémoral has lost half of its intensity [3, 11]: 60 min
time of maximal effect on débit fémoral [3, 11]: 30 min
débit fémoral ([3]; 5 mg/kg I.D., first administration, trois chiens): augmente le débit fémoral
débit vertébral ([3]; 5 mg/kg I.D., repeated): ne diminue pas le débit vertébral
persistence of the effect on débit fémoral [3, 12]: encore présent à 120 min
time of maximal effect on débit fémoral [3, 12]: 30 min
débit fémoral ([3]; 5 mg/kg I.D., second administration (90 min after the first)): effet plus intense sur le débit fémoral
débit fémoral [3, 13]: n'augmente pas davantage le débit fémoral
pression artérielle, fréquence cardiaque [3, 13]: entraîne une hypotension et une bradycardie
Variation 0,25 h après administration P.A. systolique ([4]; 1 mg/kg I.V., 0,25 h après administration): 0
Variation 0,25 h après administration P.A. moyenne ([4]; 2 mg/kg I.V., 0,25 h après administration): 0
débit fémoral [5, 14]: le débit fémoral augmente pendant la durée de la perfusion dès 1 mg/kg
pression artérielle, fréquence cardiaque [5, 14]: ne modifie pas la pression artérielle ni la fréquence cardiaque
minimal effective dose [2, 15]: 5 mg/kg
minimal effective dose [2, 10]: 1 mg/kg
résultats des essais cliniques chez l'homme [6]: bons résultats
solubilité dans l'eau [7]: soluble dans l'eau
propriétés antispasmodiques [8]: ne présente pas les propriétés antispasmodiques
débit vertébral ([9]; doses successives 0,5 - 10 mg/kg): il semble que le débit vertébral soit diminué, mais cet effet n'est pas statistiquement significatif
débit fémoral ([9]; doses successives 0,5 - 10 mg/kg, quatre chiens): augmente nettement le débit fémoral à partir de la dose de 5 mg/kg
durée de l'effet sur le débit fémoral ([9]; à partir de 5 mg/kg): plus d'une heure

COc1cc(OC)c(C(=O)CCCN2CCCC2)c(OC)c1 [LL 1656, chlorhydratede (2,4,6-triméthoxyphényl)-(3-pyrrolidinopropyl)-cétone, reference compound]
LD50 [1]: 60 ± 2.2 mg/kg
débit fémoral [3, 16]: augmentation de débit fémoral d'intensité moyenne
time of maximal effect on débit fémoral [3, 16]: 120 min
Variation 0,25 h après administration Fréquence cardiaque ([4]; 6 mg/kg I.V., 0,25 h après administration): 0
débit fémoral ([5]; perfusion de 6 mg/kg I.V. en fin d'essai, comparison with 1 mg/kg of CRL 41 080): augmente moins le débit fémoral que 1 mg/kg de CRL 41 080
minimal effective dose [2, 15]: 6 mg/kg
minimal effective dose [2, 10]: 5 mg/kg

Source: patent publication EP0110748A1, “Derivatives of phenyl-(3-aminopropyl) ketone, their therapeutical use and process for their preparation” (LABORATOIRE L. LAFON Société anonyme dite:, priority 1982, dated 1984)
